Measurements as given in PubChem BioAssay (NCI).
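All cell lines were grown in 96-well plates and treated with compound for 48 hours. At the GI50, growth is halved. TGI marks complete inhibition of growth.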

Columns and labels:
Assay in all cases: NCI tumour cell line growth inhibition, 48 h
HT29 colon = tested on: HT29 colon
SW-620 colon = tested on: SW-620 colon
NCI-H460 lung = tested on: NCI-H460 lung
K-562 leukemia = tested on: K-562 leukemia
DU-145 prostate = tested on: DU-145 prostate
TK-10 renal = tested on: TK-10 renal
U251 CNS = tested on: U251 CNS
UO-31 renal = tested on: UO-31 renal
A498 renal = tested on: A498 renal
MCF7 breast = tested on: MCF7 breast
786-0 renal = tested on: 786-0 renal
M14 melanoma = tested on: M14 melanoma
SK-OV-3 ovarian = tested on: SK-OV-3 ovarian
T-47D breast = tested on: T-47D breast
MOLT-4 leukemia = tested on: MOLT-4 leukemia
HCC-2998 colon = tested on: HCC-2998 colon
CAKI-1 renal = tested on: CAKI-1 renal
MDA-MB-231 breast = tested on: MDA-MB-231 breast
HCT-116 colon = tested on: HCT-116 colon
SNB-19 CNS = tested on: SNB-19 CNS
OVCAR-5 ovarian = tested on: OVCAR-5 ovarian
UACC-62 melanoma = tested on: UACC-62 melanoma
SF-539 CNS = tested on: SF-539 CNS
NCI/ADR-RES ovarian = tested on: NCI/ADR-RES ovarian
OVCAR-8 ovarian = tested on: OVCAR-8 ovarian
HOP-62 NSCLC = tested on: HOP-62 NSCLC
SF-268 CNS = tested on: SF-268 CNS
OVCAR-4 ovarian = tested on: OVCAR-4 ovarian
SNB-75 CNS = tested on: SNB-75 CNS
NCI-H226 lung = tested on: NCI-H226 lung
LOX IMVI melanoma = tested on: LOX IMVI melanoma
IGROV1 ovarian = tested on: IGROV1 ovarian
SR leukemia = tested on: SR leukemia
BT-549 breast = tested on: BT-549 breast
HCT-15 colon = tested on: HCT-15 colon
A549 NSCLC = tested on: A549 NSCLC
RPMI-8226 leukemia = tested on: RPMI-8226 leukemia
SK-MEL-5 melanoma = tested on: SK-MEL-5 melanoma
MALME-3M melanoma = tested on: MALME-3M melanoma
KM12 colon = tested on: KM12 colon
HOP-92 NSCLC = tested on: HOP-92 NSCLC
COLO 205 colon = tested on: COLO 205 colon
EKVX NSCLC = tested on: EKVX NSCLC
SN12C renal = tested on: SN12C renal
SK-MEL-2 melanoma = tested on: SK-MEL-2 melanoma
SF-295 CNS = tested on: SF-295 CNS
ACHN renal = tested on: ACHN renal
OVCAR-3 ovarian = tested on: OVCAR-3 ovarian
NCI-H23 lung = tested on: NCI-H23 lung
RXF 393 renal = tested on: RXF 393 renal
HS 578T breast = tested on: HS 578T breast
PC-3 prostate = tested on: PC-3 prostate
NCI-H522 lung = tested on: NCI-H522 lung
UACC-257 melanoma = tested on: UACC-257 melanoma
HL-60(TB) leukemia = tested on: HL-60(TB) leukemia
CCRF-CEM leukemia = tested on: CCRF-CEM leukemia
MDA-MB-435 = tested on: MDA-MB-435
SK-MEL-28 melanoma = tested on: SK-MEL-28 melanoma

COc1cc2c(cc1O)N=C[C@@H]1C[C@@H](F)CN1C2=O
GI50 (HT29 colon): 4100 nM | TGI (HT29 colon): > 44000 nM | GI50 (SW-620 colon): 1160 nM | TGI (SW-620 colon): 4900 nM | GI50 (NCI-H460 lung): 1790 nM | TGI (NCI-H460 lung): 4610 nM | GI50 (K-562 leukemia): 367 nM | TGI (K-562 leukemia): 4810 nM | GI50 (DU-145 prostate): 964 nM | TGI (DU-145 prostate): 8860 nM | GI50 (TK-10 renal): 1900 nM | TGI (TK-10 renal): 13000 nM | GI50 (U251 CNS): 1830 nM | TGI (U251 CNS): 10900 nM | GI50 (UO-31 renal): 1140 nM | TGI (UO-31 renal): 9620 nM | GI50 (A498 renal): 938 nM | TGI (A498 renal): 2890 nM | GI50 (MCF7 breast): 608 nM | TGI (MCF7 breast): 9060 nM | GI50 (786-0 renal): 2050 nM | TGI (786-0 renal): 12300 nM | GI50 (M14 melanoma): 1610 nM | TGI (M14 melanoma): 3730 nM | GI50 (SK-OV-3 ovarian): 5910 nM | TGI (SK-OV-3 ovarian): 18300 nM | GI50 (T-47D breast): 5290 nM | TGI (T-47D breast): 32200 nM | GI50 (MOLT-4 leukemia): 283 nM | TGI (MOLT-4 leukemia): 1230 nM | GI50 (HCC-2998 colon): 1980 nM | TGI (HCC-2998 colon): 5660 nM | GI50 (CAKI-1 renal): 281 nM | TGI (CAKI-1 renal): 1500 nM | GI50 (MDA-MB-231 breast): 1840 nM | TGI (MDA-MB-231 breast): 6210 nM | GI50 (HCT-116 colon): 1830 nM | TGI (HCT-116 colon): 5940 nM | GI50 (SNB-19 CNS): 2790 nM | TGI (SNB-19 CNS): 8660 nM | GI50 (OVCAR-5 ovarian): 965 nM | TGI (OVCAR-5 ovarian): 6660 nM | GI50 (UACC-62 melanoma): 1810 nM | TGI (UACC-62 melanoma): 3460 nM | GI50 (SF-539 CNS): 1190 nM | TGI (SF-539 CNS): 4320 nM | GI50 (NCI/ADR-RES ovarian): 1870 nM | TGI (NCI/ADR-RES ovarian): 6150 nM | GI50 (OVCAR-8 ovarian): 6370 nM | TGI (OVCAR-8 ovarian): 13900 nM | GI50 (HOP-62 NSCLC): 2550 nM | TGI (HOP-62 NSCLC): 9650 nM | GI50 (SF-268 CNS): 449 nM | TGI (SF-268 CNS): 9970 nM | GI50 (OVCAR-4 ovarian): 3930 nM | TGI (OVCAR-4 ovarian): 14500 nM | GI50 (SNB-75 CNS): 15500 nM | TGI (SNB-75 CNS): 52400 nM | GI50 (NCI-H226 lung): 2370 nM | TGI (NCI-H226 lung): 5390 nM | GI50 (LOX IMVI melanoma): 2030 nM | TGI (LOX IMVI melanoma): 7210 nM | GI50 (IGROV1 ovarian): 1650 nM | TGI (IGROV1 ovarian): 8970 nM | GI50 (SR leukemia): 173 nM | TGI (SR leukemia): 602 nM | GI50 (BT-549 breast): 869 nM | TGI (BT-549 breast): 5830 nM | GI50 (HCT-15 colon): 2890 nM | TGI (HCT-15 colon): 9330 nM | GI50 (A549 NSCLC): 7970 nM | TGI (A549 NSCLC): > 19700 nM | GI50 (RPMI-8226 leukemia): 216 nM | TGI (RPMI-8226 leukemia): 552 nM | GI50 (SK-MEL-5 melanoma): 817 nM | TGI (SK-MEL-5 melanoma): 2320 nM | GI50 (MALME-3M melanoma): 789 nM | TGI (MALME-3M melanoma): 2880 nM | GI50 (KM12 colon): 1810 nM | TGI (KM12 colon): 5040 nM | GI50 (HOP-92 NSCLC): 269 nM | TGI (HOP-92 NSCLC): 719 nM | GI50 (COLO 205 colon): 3180 nM | TGI (COLO 205 colon): 11500 nM | GI50 (EKVX NSCLC): 2850 nM | TGI (EKVX NSCLC): 9800 nM | GI50 (SN12C renal): 2520 nM | TGI (SN12C renal): 8710 nM | GI50 (SK-MEL-2 melanoma): 1160 nM | GI50 (SF-295 CNS): 712 nM | TGI (SF-295 CNS): 4330 nM | GI50 (ACHN renal): 2580 nM | TGI (ACHN renal): 6150 nM | TGI (OVCAR-3 ovarian): 808 nM | GI50 (NCI-H23 lung): 1820 nM | TGI (NCI-H23 lung): 4440 nM | GI50 (RXF 393 renal): 898 nM | TGI (RXF 393 renal): 2160 nM | GI50 (HS 578T breast): 96.4 nM | TGI (HS 578T breast): 2130 nM | GI50 (PC-3 prostate): 1830 nM | TGI (PC-3 prostate): 9180 nM | GI50 (NCI-H522 lung): 289 nM | TGI (NCI-H522 lung): 970 nM | GI50 (UACC-257 melanoma): 17500 nM | TGI (UACC-257 melanoma): 34400 nM | GI50 (HL-60(TB) leukemia): 588 nM | TGI (HL-60(TB) leukemia): 10100 nM | GI50 (CCRF-CEM leukemia): 304 nM | TGI (CCRF-CEM leukemia): 3300 nM | GI50 (MDA-MB-435): 1550 nM | TGI (MDA-MB-435): 3510 nM | GI50 (SK-MEL-28 melanoma): 2900 nM | TGI (SK-MEL-28 melanoma): 9390 nM
